Results from ChEMBL document CHEMBL1144215, “N-Propylnoraporphin-11-O-yl carboxylic esters as potent dopamine D(2) and serotonin 5-HT(1A) receptor dual ligands” (Bioorg Med Chem, 2008).

Each compound was assayed against T1, D(2) dopamine receptor (Homo sapiens, UniProt P14416) (assay: Displacement of [3H]Spiperone from human dopamine D2 receptor expressed in HEK293 cells).
T1 sequence (P14416 whole entry): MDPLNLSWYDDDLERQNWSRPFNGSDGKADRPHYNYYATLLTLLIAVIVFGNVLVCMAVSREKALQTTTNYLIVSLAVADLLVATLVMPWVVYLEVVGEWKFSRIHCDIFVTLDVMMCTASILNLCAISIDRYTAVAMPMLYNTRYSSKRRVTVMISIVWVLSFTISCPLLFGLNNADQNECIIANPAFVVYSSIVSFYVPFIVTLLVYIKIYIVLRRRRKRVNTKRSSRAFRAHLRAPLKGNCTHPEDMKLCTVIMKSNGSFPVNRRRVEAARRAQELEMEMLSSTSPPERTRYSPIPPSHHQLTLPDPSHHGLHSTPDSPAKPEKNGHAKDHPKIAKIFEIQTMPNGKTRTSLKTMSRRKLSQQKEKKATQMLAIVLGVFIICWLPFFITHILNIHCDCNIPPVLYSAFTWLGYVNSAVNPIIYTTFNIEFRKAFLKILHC

| Compound | Ki |
| --- | --- |
| CCCCC(=O)Oc1cccc2c1-c1cccc3c1[C@@H](C2)N(CCC)CC3 | > 10 µM |
| CCCC(=O)Oc1cccc2c1-c1cccc3c1[C@@H](C2)N(CCC)CC3 | > 10 µM |
| CCCCCC(=O)Oc1cccc2c1-c1cccc3c1[C@@H](C2)N(CCC)CC3 | > 10 µM |
| CCCN1CCc2cccc3c2[C@H]1Cc1cccc(OC(=O)CNC(=O)OCc2ccccc2)c1-3 | > 10 µM |

The compounds below were run against T1, D(2) dopamine receptor (assay: Displacement of […] from human dopamine D2 receptor expressed in HEK293 cells).
Type: cell-based

| Compound | Ki |
| --- | --- |
| CCCN1CCc2cccc3c2[C@H]1Cc1cccc(OC(=O)CCCC(=O)Oc2cccc4c2-c2cccc5c2[C@@H](C4)N(CCC)CC5)c1-3 | > 10 µM |

These compounds were tested against Dopamine D1 receptor (assay: Displacement of [3H]SCH23390 from rat dopamine D1 receptor expressed in HEK293 cells).

| Compound | Ki |
| --- | --- |
| CCCC(=O)Oc1cccc2c1-c1cccc3c1[C@@H](C2)N(CCC)CC3 | > 10 µM |
| CCCCCC(=O)Oc1cccc2c1-c1cccc3c1[C@@H](C2)N(CCC)CC3 | > 10 µM |
| CCCN1CCc2cccc3c2[C@H]1Cc1cccc(OC(=O)CNC(=O)OCc2ccccc2)c1-3 | > 10 µM |

These compounds were tested against 5-hydroxytryptamine receptor 2A (Homo sapiens, UniProt P28223) (assay: Displacement of [3H]Ketanserin from human 5HT2A receptor expressed in HEK293 cells).
Chain of 5-hydroxytryptamine receptor 2A (P28223 whole entry): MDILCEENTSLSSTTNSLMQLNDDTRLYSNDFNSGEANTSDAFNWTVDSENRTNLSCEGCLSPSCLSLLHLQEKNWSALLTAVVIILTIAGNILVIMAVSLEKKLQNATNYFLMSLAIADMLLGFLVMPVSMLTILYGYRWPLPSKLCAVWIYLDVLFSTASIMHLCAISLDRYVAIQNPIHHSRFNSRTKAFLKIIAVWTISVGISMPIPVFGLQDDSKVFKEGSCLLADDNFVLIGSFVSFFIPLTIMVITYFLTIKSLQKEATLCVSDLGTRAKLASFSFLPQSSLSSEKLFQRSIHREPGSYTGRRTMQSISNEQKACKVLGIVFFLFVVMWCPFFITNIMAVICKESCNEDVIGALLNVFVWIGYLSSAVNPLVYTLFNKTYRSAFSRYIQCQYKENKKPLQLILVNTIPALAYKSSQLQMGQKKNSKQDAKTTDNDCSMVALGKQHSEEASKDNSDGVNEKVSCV

| Compound | Ki |
| --- | --- |
| CCCCC(=O)Oc1cccc2c1-c1cccc3c1[C@@H](C2)N(CCC)CC3 | 0.092 µM |
| CCCN1CCc2cccc3c2[C@H]1Cc1cccc(OC(=O)CC)c1-3 | 0.109 µM |
| CCCN1CCc2cccc3c2[C@H]1Cc1cccc(O)c1-3 | 0.114 µM |
| CCCN1CCc2cccc3c2[C@H]1Cc1cccc(OC(C)=O)c1-3 | 0.072 µM |
| CCCC(=O)Oc1cccc2c1-c1cccc3c1[C@@H](C2)N(CCC)CC3 | 0.056 µM |
| CCCCCC(=O)Oc1cccc2c1-c1cccc3c1[C@@H](C2)N(CCC)CC3 | 0.109 µM |
| CCCN1CCc2cccc3c2[C@H]1Cc1cccc(OC(=O)CNC(=O)OCc2ccccc2)c1-3 | > 10 µM |
| CCCCCCC(=O)Oc1cccc2c1-c1cccc3c1[C@@H](C2)N(CCC)CC3 | 0.095 µM |
